Results reported in US20120034613A1, “Apparatus and Method for Testing Relationships Between Gene Expression and Physical Appearance of Skin” (NSE Products, Inc., priority 2010, published 2012).

System: EpidermFT™ Skin Model (EFT-400) full thickness skin cultures
Assay: Affymetrix GeneChip HG U133 Plus 2.0 microarray global gene expression, agent-exposed vs untreated skin cultures
Type: cell-based, human
[1] = Salicin 0.5% vs Untreated Control, 24 hr, direction down
[2] = probe 201286_at, Table 3 skin structure
[3] = probe 203535_at, Table 3 skin structure
[4] = probe 204422_s_at, Table 3 skin structure

## OCc1ccccc1O[C@@H]1O[C@H](CO)[C@@H](O)[C@H](O)[C@H]1O [Salicin, 2-(Hydroxymethyl)phenyl β-D-glucospyranoside]
[1]
  Fold change WNK1 (211993_at): 2.037
  Fold change ZBTB1 (1557036_at): 2.05
  Fold change ZDHHC21 (241946_at): 2.09
  Fold change ZFYVE21 (219929_s_at): 2.001
  Fold change ZHX1 (223213_s_at): 2.071
  Fold change ZHX1 (223214_s_at): 2.15
  Fold change ZNF85 (1554445_at): 2.143
  Fold change ZNF561 (235200_at): 2.135
  Fold change ZNF589 (219968_at): 2.059
  Fold change ZNF823 (229732_at): 2.045
Probe 200606_at, 0.5%, 24 hr
  Direction DSP: down
  Fold change DSP: 2.848
Probe 200800_s_at, 0.5%, 24 hr
  Direction HSPA1A /// HSPA1B: up
  Fold change HSPA1A /// HSPA1B: 3.112
Probe 200832_s_at, 0.5%, 24 hr
  Direction SCD: down
  Fold change SCD: 3.77
Probe 200965_s_at, 0.5%, 24 hr
  Direction ABLIM1: down
  Fold change ABLIM1: 11.88
Probe 201042_at, 0.5%, 24 hr
  Direction TGM2: up
  Fold change TGM2: 2.351
Probe 201044_x_at, 0.5%, 24 hr
  Direction DUSP1: up
  Fold change DUSP1: 3.726
Probe 201150_s_at, 0.5%, 24 hr
  Direction TIMP3: up
  Fold change TIMP3: 2.058
[2]
  Direction SDC1: down
  Fold change SDC1: 4.63
Probe 201287_s_at, 0.5%, 24 hr
  Direction SDC1: down
  Fold change SDC1: 3.32
Probe 201428_at, 0.5%, 24 hr
  Direction CLDN4: down
  Fold change CLDN4: 3.454
Probe 201474_s_at, 0.5%, 24 hr
  Direction ITGA3: down
  Fold change ITGA3: 2.052
Probe 201502_s_at, 0.5%, 24 hr
  Direction NFKBIA: up
  Fold change NFKBIA: 3.064
Probe 201656_at, 0.5%, 24 hr
  Direction ITGA6: down
  Fold change ITGA6: 4.442
Probe 201820_at, 0.5%, 24 hr
  Direction KRT5: down
  Fold change KRT5: 2.154
Probe 201839_s_at, 0.5%, 24 hr
  Direction EPCAM: down
  Fold change EPCAM: 2.093
Probe 201860_s_at, 0.5%, 24 hr
  Direction PLAT: up
  Fold change PLAT: 4.229
Probe 202053_s_at, 0.5%, 24 hr
  Direction ALDH3A2: down
  Fold change ALDH3A2: 4.399
Probe 202154_x_at, 0.5%, 24 hr
  Direction TUBB3: down
  Fold change TUBB3: 2.967
Probe 202340_x_at, 0.5%, 24 hr
  Direction NR4A1: up
  Fold change NR4A1: 2.338
Probe 202411_at, 0.5%, 24 hr
  Direction IFI27: down
  Fold change IFI27: 4.671
Probe 202422_s_at, 0.5%, 24 hr
  Direction ACSL4: up
  Fold change ACSL4: 3.786
Probe 202558_s_at, 0.5%, 24 hr
  Direction HSPA13: up
  Fold change HSPA13: 3.13
Probe 202609_at, 0.5%, 24 hr
  Direction EPS8: up
  Fold change EPS8: 2.334
Probe 202643_s_at, 0.5%, 24 hr
  Direction TNFAIP3: up
  Fold change TNFAIP3: 6.915
Probe 202687_s_at, 0.5%, 24 hr
  Direction TNFSF10: down
  Fold change TNFSF10: 20.31
Probe 202724_s_at, 0.5%, 24 hr
  Direction FOXO1: up
  Fold change FOXO1: 2.098
Probe 202826_at, 0.5%, 24 hr
  Direction SPINT1: down
  Fold change SPINT1: 4.585
Probe 202843_at, 0.5%, 24 hr
  Direction DNAJB9: up
  Fold change DNAJB9: 3.56
Probe 203184_at, 0.5%, 24 hr
  Direction FBN2: up
  Fold change FBN2: 2.028
[3]
  Direction S100A9: down
  Fold change S100A9: 2.59
Probe 203549_s_at, 0.5%, 24 hr
  Direction LPL: up
  Fold change LPL: 4.075
Probe 203708_at, 0.5%, 24 hr
  Direction PDE4B: up
  Fold change PDE4B: 5.314
Probe 203747_at, 0.5%, 24 hr
  Direction AQP3: down
  Fold change AQP3: 2.032
Probe 203810_at, 0.5%, 24 hr
  Direction DNAJB4: up
  Fold change DNAJB4: 2.053
Probe 203836_s_at, 0.5%, 24 hr
  Direction MAP3K5: up
  Fold change MAP3K5: 2.356
Probe 203887_s_at, 0.5%, 24 hr
  Direction THBD: down
  Fold change THBD: 3.137
Probe 203896_s_at, 0.5%, 24 hr
  Direction PLCB4: up
  Fold change PLCB4: 4.016
Probe 203980_at, 0.5%, 24 hr
  Direction FABP4: up
  Fold change FABP4: 2.251
Probe 204038_s_at, 0.5%, 24 hr
  Direction LPAR1: up
  Fold change LPAR1: 2.732
Probe 204135_at, 0.5%, 24 hr
  Direction FILIP1L: down
  Fold change FILIP1L: 2.996
Probe 204141_at, 0.5%, 24 hr
  Direction TUBB2A: down
  Fold change TUBB2A: 2.739
Probe 204256_at, 0.5%, 24 hr
  Direction ELOVL6: down
  Fold change ELOVL6: 3.121
Probe 204273_at, 0.5%, 24 hr
  Direction EDNRB: up
  Fold change EDNRB: 3.916
Probe 204379_s_at, 0.5%, 24 hr
  Direction FGFR3: down
  Fold change FGFR3: 5.288
Probe 204421_s_at, 0.5%, 24 hr
  Direction FGF2: up
  Fold change FGF2: 3.845
[4]
  Direction FGF2: up
  Fold change FGF2: 3.455
Probe 204636_at, 0.5%, 24 hr
  Direction COL17A1: down
  Fold change COL17A1: 3.576
Probe 204733_at, 0.5%, 24 hr
  Direction KLK6: down
  Fold change KLK6: 16.28
Probe 204734_at, 0.5%, 24 hr
  Direction KRT15: down
  Fold change KRT15: 3.6
Probe 204790_at, 0.5%, 24 hr
  Direction SMAD7: up
  Fold change SMAD7: 2.151
Probe 204897_at, 0.5%, 24 hr
  Direction PTGER4: up
  Fold change PTGER4: 2.525
Probe 204932_at, 0.5%, 24 hr
  Direction INFRSF11B: up
  Fold change INFRSF11B: 6.287
